According to patent US20220323269A1, “PERSONAL HYGIENE PRODUCT” (Croda International Plc, priority 2019, published 2022):

Columns and labels:
Format in all cases: in vivo
[1] = system: skin, volar forearm test sites; assay: Comparative irritation panel study vs ester based emollient, TEWL by POST protocol (Example 4); conditions: FIG. 9; 10 gsm polypropylene nonwoven; 0.6% Cirrasol Care + 12% additive; 24 hours under occlusion patch; 16 panellists
From the text: 10 gsm polypropylene nonwoven textile was cut into 11 mm diameter circles. Each circle was individually treated with water based dispersions then dried to achieve a treat rate of a) 0.6% low-irritation hygiene finish (Cirrasol™ Care ex. Croda, Sample A) based on weight of textile, or b) 0.6% low-irritation hygiene finish and 12% di-PPG-2 myreth-10 adipate (a diester skin care additive in accordance with the present invention, Sample B), or c) 0.6% low-irritation hygiene finish and 12% of a saturated tri-ester based emollient (Crodamol™ GTCC ex. Croda, Sample C). Treat rates are expressed as percentage by weight of textile. […]
(§1) For each panellist three test sites on each volar forearm were identified and marked (i.e. 6 test sites in total per panellist were assessed). An initial trans-epidermal water loss (TEWL) reading was taken using an AquaFlux AF200 Instrument to ensure no initial skin irritation at each of the 6 test sites. […]
(§2) After 24 hours panellists were again acclimatised to the laboratory environment for 20 mins at 20° C. and 45% relative humidity. TEWL was measured using the POST (post occlusion stress test) protocol. Under this test the occlusion patch is removed, along with the textile sample, the test site is then wiped of any surface moisture, and then TEWL readings are taken immediately using the same AquaFlux AF200 Instrument. […]

[2] = system: skin, volar forearm test sites; assay: Comparative irritation panel study vs glycerine based emollient, TEWL by POST protocol (Example 3); conditions: FIG. 8; 10 gsm polypropylene nonwoven; 0.6% Cirrasol Care + 12% additive; 24 hours under occlusion patch; 16 panellists
From the text: 10 gsm polypropylene nonwoven textile was cut into 11 mm diameter circles. Each circle was individually treated with water based dispersions then dried to achieve a treat rate of a) 0.6% low-irritation hygiene finish (CirrasolTM Care ex. Croda, Sample A), or b) 0.6% low irritation hygiene finish and 12% […]-10 adipate (a diester skin care additive in accordance with the present invention, Sample B), or c) 0.6% low-irritation hygiene finish and 12% of a glycerine based emollient (Sample C). Treat rates are expressed as percentage by weight of textile. An irritation panel study was carried out, the study included 16 individual panellists. […] For each panellist three test sites on each volar forearm were identified and marked (i.e. 6 test sites in total per panellist were assessed). An initial trans-epidermal water loss (TEWL) reading was taken using an AquaFlux AF200 Instrument to ensure no initial skin irritation at each of the 6 test sites. […] TEWL was measured using the POST (post occlusion stress test) protocol. Under this test the occlusion patch is removed, along with the textile sample, the test site is then wiped of any surface moisture, and then TEWL readings are taken immediately using the same AquaFlux AF200 Instrument. TEWL is measured until the water loss rate peaks, and for the following 5 minutes. Results are measured in total water loss for 5 minutes after water loss rate peaks. […]

[3] = system: skin, volar forearm test sites; assay: Irritation panel study, TEWL by POST (post occlusion stress test) protocol, SLS irritant model (Example 1); conditions: FIG. 1; 10 gsm polypropylene nonwoven with 1% SLS + 2% diester vs 1% SLS alone (Sample A); 24 hours under occlusion patch; 9 panellists
From the text: 10 gsm polypropylene nonwoven textile was cut into 11 mm diameter circles. Each circle was individually treated with water based dispersions then dried to achieve either a treat rate of a) 1% sodium lauryl sulphate (SLS, Sample A) based on weight of textile, or b) 1% SLS and 2% di-PPG-2 myreth-10 adipate (a diester skin care additive in accordance with the present invention, Sample B) based on percentage by weight of textile. SLS is a known skin irritant, and so provides a good model for assessing skin irritancy in test subjects/panellists.
An irritation panel study was carried out, the study included 9 individual panellists. […]
as §1, §2

## di-PPG-2 myreth-10 adipate [diester skin care additive]
[1]
  skin irritation from nonwoven in contact with skin (combined average TEWL) compared to low-irritancy hygiene finish alone: reduced skin irritation
[2]
  skin irritation from nonwoven in contact with skin (combined average TEWL) compared to low-irritancy hygiene finish alone: reduced skin irritation
[3]
  decrease in skin water loss (combined average TEWL of all panellists): 31%
